Several values for one entry are separate records, joined by “and”; a condition that tells them apart may be missing. Equal values may be shown once. Read-outs that look alike come from different tables or passages of the source.
Assays:
[1] = molecular target: T1, hERα (Saccharomyces cerevisiae BLYES strain) (Homo sapiens, UniProt P03372); assay: cell-based; assay type: cell-based; conditions: for CI Value (combination index) / Combined Estrogenic Effect / Combined Estrogenic Effect (grade symbol) / Combined estrogenic effect in Figure 5B / Effect of subtoxic (non-estrogenic) concentration of the compound on the estrogenic effect of ZEN / Concentration at (and above) which statistically significant (p < 0.01) estrogenic effect was observed: BLYES; for CI Value (combination index) / Combined Estrogenic Effect / Combined Estrogenic Effect (grade symbol): + 6.28 × 10^−2 µM ZEN; for Combined estrogenic effect in Figure 5B: + 62.8 ×10^-3 μM ZEN; for Effect of subtoxic (non-estrogenic) concentration of the compound on the estrogenic effect of ZEN: co-treatment with ZEN (approx. 20% estrogenicity), α-ZEL 1.56 × 10^−3 µM, ZAN 6.24 × 10^−3 µM, AOH up to 48.4 µM, Figure 5A; for Concentration at (and above) which statistically significant (p < 0.01) estrogenic effect was observed: single compound
T1 construct: expressed in transfected cells; host or cells: Saccharomyces cerevisiae BLYES strain (hERα gene integrated in the chromosome)
T1 sequence (P03372 whole entry): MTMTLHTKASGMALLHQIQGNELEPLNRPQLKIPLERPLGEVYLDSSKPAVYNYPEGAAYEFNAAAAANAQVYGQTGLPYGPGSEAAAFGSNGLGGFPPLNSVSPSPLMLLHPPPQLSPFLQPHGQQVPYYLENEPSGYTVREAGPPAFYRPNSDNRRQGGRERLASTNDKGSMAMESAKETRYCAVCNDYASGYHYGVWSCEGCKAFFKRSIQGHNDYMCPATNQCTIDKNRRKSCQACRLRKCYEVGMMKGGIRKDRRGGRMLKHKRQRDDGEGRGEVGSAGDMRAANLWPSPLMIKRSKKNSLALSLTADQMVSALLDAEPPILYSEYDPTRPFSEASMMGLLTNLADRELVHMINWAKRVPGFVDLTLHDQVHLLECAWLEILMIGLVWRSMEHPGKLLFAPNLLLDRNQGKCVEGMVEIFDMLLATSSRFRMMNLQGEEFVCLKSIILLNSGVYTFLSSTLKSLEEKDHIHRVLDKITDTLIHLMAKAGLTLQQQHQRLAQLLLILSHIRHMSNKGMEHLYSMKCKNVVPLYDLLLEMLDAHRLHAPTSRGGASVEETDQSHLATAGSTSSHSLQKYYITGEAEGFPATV
Excerpt: The Saccharomyces cerevisiae BLYES strain was applied to examine the estrogenic activity of the compounds tested. This bioluminescent yeast bioreporter harbors the hERα gene on its chromosome, and it has two plasmids with genes responsible for bioluminescence. The pUTK404 plasmid contains luxC, -D, and -E genes from Photorhabdus luminescens and flavin oxidoreductase gene (frp) from Vibrio harveyi. The pUTK407 plasmid contains tandem estrogen responsive elements (EREs) that initiate the transcription of luxA and luxB genes after binding the dimer formed by estrogen receptor—ligand complexes.
S. cerevisiae BLYES strain was grown in 30 mL of yeast growth medium (YMM leu-, ura-) for 18–20 h at 30 °C.
Stock solutions of the compounds tested were prepared in methanol and stored at −20 °C. Estrogen assays were carried out on 96-well (PS, F-bottom) microplates (Greiner Bio-One Hungary Ltd., Mosonmagyaróvár, Hungary). In single compound tests, stock solutions of the compounds were serially diluted with methanol; whereas, in co-exposure experiments, a 20-µL mixture of the solutions was placed into the wells of the microplates. After the evaporation of methanol, yeast culture (200 µL; OD600 of 1.000 ± 0.050) were pipetted into each well. E2 was applied as a positive control, while wells containing only yeast cells and yeast cells with methanol served as negative and solvent controls, respectively. Bioluminescence (cps, counts per second) was measured after 5-h incubation (30 °C) with a VictorX Multilabel Plate Reader (Perkin Elmer Inc., Waltham, MA, USA).
(§1) Combined effects were evaluated based on combination indices (CI) determined using the CompuSyn software (ComboSyn Inc., Paramus, NJ, USA) by the median-effect equation of the mass-action law:(1) logfa/fu=m×log(D)−m×log(Dm), where fa and fu are the affected and unaffected fractions of the system, respectively; D represents the dose, Dm denotes the dose necessary for the production of median effect, while m is the sigmoidicity coefficient (m > 1 sigmoidal, m = 1 hyperbolic, m < 1 flat sigmoidal).
(§2) The combined effects of mycotoxins were determined by the CI values calculated based on the following equation [68]:(2) CI=(D)1/(Dx)1+(D)2/(Dx)2, where (Dx)1 and (Dx)2 are the individual doses necessary for the production of x% effect, while (D)1 and (D)2 are the doses of the two compounds that combined evoke the same effect as (Dx)1 alone or (Dx)2 alone, i.e., the targeted x% effect.
Zero percent was defined in each measurement as the mean of the methanol control values, and 100% was defined as the mean of all plateau values of single compounds’ concentration—response curves.

in vitro = conditions: human
Protocol: (§3) The HeLa cervical cancer adherent cell line (ATCC: CCL-2) was applied for the evaluation of individual and combined effects of mycotoxins on cell viability. The cells were cultured in DMEM (high glucose, 4500 mg/L) with 10% FBS, penicillin (100 U/mL), and streptomycin (100 μg/mL) in sterile plastic cell culture flasks (75 cm^2; 5% CO2, 37 °C). The cells were trypsinized and plated onto 96-well sterile plastic plates. Stock solutions (each 5000 μM) of ZEN, ZELs, ZAN, and ZALs used in cell experiments were prepared in 96 v/v% ethanol (spectroscopic grade; VWR, Debrecen, Hungary). Stock solutions of AOH (5000 μM or 40 mM) were prepared in spectroscopic grade dimethyl sulfoxide (DMSO; Fluka, Morris Plains, NJ, USA). Mycotoxin stock solutions were stored at −20 °C.
(§4) HeLa cells were treated with ZEN, α/β-ZEL, ZAN, α/β-ZAL, and AOH (0–250 μM) for 24 h. […] The cell viability was evaluated based on the ATP levels/well employing a previously described method without modifications.
as §1, §2

HeLa cells = assay: in vitro; conditions: for Concentration at (and above) which statistically significant (p < 0.01) decrease in cell viability was noticed: 24 h incubation, single compound; for IC50: Homo sapiens, read-out: Dm (IC50), viability of HeLa cells (ATP/well); for Effect of the non-toxic (subtoxic) concentration of the compound on ATP levels of ZEN-exposed cells: co-exposure with toxic concentration of ZEN (20 μM), compared to ZEN-exposed cells, Figure 3A
Protocol: as §3, §4, §1, §2

[2] = higher concentration (µM): α-ZEL 1.25 × 10^−2, β-ZEL 2.43, ZAN 4.99 × 10^−2, α-ZAL 2.48 × 10^−2, β-ZAL 2.48 × 10^−1, GEN 1.48
[3] = higher estrogenic concentration of the compound (as E22)
[4] = lower concentration (µM): α-ZEL 6.24 × 10^−3, β-ZEL 1.22, ZAN 2.50 × 10^−2, α-ZAL 1.24 × 10^−2, β-ZAL 1.24 × 10^−1, GEN 7.4 × 10^−1
[5] = lower estrogenic concentration of the compound (as E21)
[6] = higher estrogenic concentration of the compound (as E20)
[7] = lower estrogenic concentration of the compound (as E19)
[8] = HeLa, 24 h, 10 µM (lower toxic concentration) of the compound + 20 µM ZEN
[9] = HeLa, 24 h, 10 µM of the compound + 20 µM ZEN
[10] = HeLa, 24 h, 10 µM of the compound + 20 µM ZEN, CompuSyn
[11] = HeLa, 24 h, 30 µM (higher toxic concentration) of the compound + 20 µM ZEN
[12] = HeLa, 24 h, 30 µM of the compound + 20 µM ZEN
[13] = HeLa, 24 h, 30 µM of the compound + 20 µM ZEN, CompuSyn

| Structure (SMILES) | EC50 [1] [µM] | CI Value (combination index) [1, 2] | Combined Estrogenic Effect [1, 3] | Combined Estrogenic Effect (grade symbol) [1, 3] | CI Value (combination index) [1, 4] | Combined Estrogenic Effect [1, 5] | Combined Estrogenic Effect (grade symbol) [1, 5] | Combined estrogenic effect in Figure 5B [1, 6] | Combined estrogenic effect in Figure 5B [1, 7] | Concentration at (and above) which statistically significant (p < 0.01) estrogenic effect was observed [1] [µM] | cytotoxicity at 10 µM (in vitro) [%] | cytotoxicity at 30 µM (in vitro) [%] | Combined cytotoxic effect in Figure 3B (HeLa cells; [8]) | Combined Cytotoxic Effect (HeLa cells; [9]) | Combined Cytotoxic Effect (grade symbol) (HeLa cells; [9]) | Combined cytotoxic effect in Figure 3B (HeLa cells; [11]) | Combined Cytotoxic Effect (HeLa cells; [12]) | Combined Cytotoxic Effect (grade symbol) (HeLa cells; [12]) | Concentration at (and above) which statistically significant (p < 0.01) decrease in cell viability was noticed (HeLa cells; HeLa) [µM] | IC50 (HeLa cells; HeLa, 24 h) [µM] | other results |
| --- | --- | --- | --- | --- | --- | --- | --- | --- | --- | --- | --- | --- | --- | --- | --- | --- | --- | --- | --- | --- | --- |
| C[C@H]1CCCC(=O)CCCCCc2cc(O)cc(O)c2C(=O)O1 [ZAN, zearalanone] | 0.048 | 0.62 | Synergism (CI < 0.8: synergism) | + (0.60 < CI < 0.80: +) | 0.58 | Synergism (CI < 0.8: synergism) | ++ (CI < 0.60: ++) | synergism | synergism | 0.012 | 13.2 | 34.8 | Syn and synergism | Synergism (CI < 0.8: synergism) | ++ (CI < 0.60: ++) | Syn and synergism | Synergism (CI < 0.8: synergism) | + (0.60 < CI < 0.80: +) | 10 | 61.5 | Effect of subtoxic (non-estrogenic) concentration of the compound on the estrogenic effect of ZEN [1]: statistically significant (p < 0.05) increases; CI Value (combination index) (HeLa cells; [10]): 0.55; CI Value (combination index) (HeLa cells; [13]): 0.77 |
| C[C@H]1CCC[C@@H](O)CCCCCc2cc(O)cc(O)c2C(=O)O1 [β-ZAL, β-zearalanol] | 0.18 | 1.56 | Antagonism (CI > 1.2: antagonism) | -- (CI > 1.40: --) | 1.19 | Additive effect (0.8 < CI < 1.2: additive effect) | ± (0.80 < CI < 1.20: ±) | antagonism | additive effect | 0.03 | 9.6 | 28 | Syn | Synergism (CI < 0.8: synergism) | ++ (CI < 0.60: ++) | Syn | Synergism (CI < 0.8: synergism) | + (0.60 < CI < 0.80: +) | 10 | 64.5 | CI Value (combination index) (HeLa cells): 0.51 and 0.72; Effect of the non-toxic (subtoxic) concentration of the compound on ATP levels of ZEN-exposed cells (HeLa cells; HeLa, 24 h): statistically significant (p < 0.01) decreases in ATP levels |
| C[C@H]1CCC[C@H](O)CCC/C=C/c2cc(O)cc(O)c2C(=O)O1 [α-ZEL, α-zearalenol] | 0.019 | 0.41 | Synergism (CI < 0.8: synergism) | ++ (CI < 0.60: ++) | 0.37 | Synergism (CI < 0.8: synergism) | ++ (CI < 0.60: ++) | synergism | synergism |  | 5.5 | 38.4 | Syn | Synergism (CI < 0.8: synergism) | ++ (CI < 0.60: ++) | Add | Additive effect (0.8 < CI < 1.2: additive effect) | ± (0.80 < CI < 1.20: ±) | 20 | 44.6 | Effect of subtoxic (non-estrogenic) concentration of the compound on the estrogenic effect of ZEN [1]: statistically significant (p < 0.05) increases; CI Value (combination index) (HeLa cells; [10]): 0.57; CI Value (combination index) (HeLa cells; [13]): 0.81 |
| C[C@H]1CCC[C@H](O)CCCCCc2cc(O)cc(O)c2C(=O)O1 [α-ZAL, α-zearalanol] | 0.019 | 1.16 | Additive effect (0.8 < CI < 1.2: additive effect) | ± (0.80 < CI < 1.20: ±) | 0.97 | Additive effect (0.8 < CI < 1.2: additive effect) | ± (0.80 < CI < 1.20: ±) | additive combined effects | additive combined effects | 0.024 | 1.9 | 19.3 | Syn | Synergism (CI < 0.8: synergism) | ++ (CI < 0.60: ++) | Syn | Synergism (CI < 0.8: synergism) | + (0.60 < CI < 0.80: +) | 20 | 63.8 | CI Value (combination index) (HeLa cells): 0.78 and 0.52; Effect of the non-toxic (subtoxic) concentration of the compound on ATP levels of ZEN-exposed cells (HeLa cells; HeLa, 24 h): statistically significant (p < 0.01) decreases in ATP levels |
